Data on 20 molecules can be found in patent US11453647B2, “Benzimidazole derivatives as adenosine receptor antagonists” (Merck Patent GmbH, priority 2017, dated 2022).

Common to all, as to assay type: cell-based
One experiment has as its target T1, human A1 receptor (Homo sapiens, UniProt P30542).
T1 construct: expressed in transfected cells; host or cells: CHO
T1 sequence (P30542 1-326): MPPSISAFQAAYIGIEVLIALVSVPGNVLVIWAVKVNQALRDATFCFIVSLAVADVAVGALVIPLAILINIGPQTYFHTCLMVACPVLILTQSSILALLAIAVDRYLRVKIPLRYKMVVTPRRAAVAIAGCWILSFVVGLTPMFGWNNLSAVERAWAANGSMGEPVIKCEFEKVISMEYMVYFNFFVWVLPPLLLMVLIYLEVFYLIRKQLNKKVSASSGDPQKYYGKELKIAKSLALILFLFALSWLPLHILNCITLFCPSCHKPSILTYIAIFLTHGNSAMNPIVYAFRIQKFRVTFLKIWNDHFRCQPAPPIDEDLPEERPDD
The experiment is described as follows: functional cAMP (HTRF) assay, recombinant CHO cells expressing human A1 receptor, forskolin, agonist CPA. The procedure:
The functional activities of human A2A, A2B, A1 and A3 receptors were determined by quantification of cAMP, being the second messenger for adenosine receptors.
For human A1 and A3 receptors, recombinant CHO cells, expressing either A1 or A3-receptor, were used. As both receptors couple to Gi proteins, the assay protocol was adapted:
Cells were seeded into 384-well plates, forskolin, test compounds and agonists (CPA for A1- and IB-MECA for A3-receptor) were added. After 30 min incubation, HTRF reagents (cAMP dynamic 2, Cis Bio) were added and the cellular cAMP levels were determined using the ENVISION (Perkin Elmer) plate reader. Obtained raw data were normalized against the inhibitor control and the neural control (DMSO) and the normalized data were fitted using GeneData software.
(In general: TR-FRET usually uses a lanthanide donor and a delayed reading to cut background.)

The target of the next experiment is T2, human A2A receptor (Homo sapiens, UniProt P29274).
T2 construct: expressed in transfected cells; host or cells: HEK293
The experiment is described as follows: functional cAMP (HTRF) assay, recombinant HEK293 cells expressing human A2A receptor, agonist NECA.

For a further experiment, the target named is T3, A2B receptors (Homo sapiens, UniProt P29275).
T3 sequence (P29275 1-332): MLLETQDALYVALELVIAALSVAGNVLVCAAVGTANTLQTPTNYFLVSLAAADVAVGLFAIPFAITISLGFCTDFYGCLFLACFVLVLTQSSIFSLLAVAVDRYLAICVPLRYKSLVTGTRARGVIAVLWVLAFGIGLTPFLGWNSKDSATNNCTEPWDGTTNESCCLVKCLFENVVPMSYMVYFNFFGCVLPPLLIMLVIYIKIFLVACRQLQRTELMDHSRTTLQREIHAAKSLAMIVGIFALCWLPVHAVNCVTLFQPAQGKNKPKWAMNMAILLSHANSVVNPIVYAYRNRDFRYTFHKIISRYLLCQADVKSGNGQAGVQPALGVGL
The experiment is described as follows: functional cAMP (HTRF) assay, recombinant HEK293 cells expressing human A2B receptor, agonist NECA. Further details: expressed in transfected cells; host or cells: HEK293.

In a further experiment the target is T4, human A3 receptor (Homo sapiens, UniProt P0DMS8).
T4 construct: expressed in transfected cells; host or cells: CHO
T4 sequence (P0DMS8 1-318): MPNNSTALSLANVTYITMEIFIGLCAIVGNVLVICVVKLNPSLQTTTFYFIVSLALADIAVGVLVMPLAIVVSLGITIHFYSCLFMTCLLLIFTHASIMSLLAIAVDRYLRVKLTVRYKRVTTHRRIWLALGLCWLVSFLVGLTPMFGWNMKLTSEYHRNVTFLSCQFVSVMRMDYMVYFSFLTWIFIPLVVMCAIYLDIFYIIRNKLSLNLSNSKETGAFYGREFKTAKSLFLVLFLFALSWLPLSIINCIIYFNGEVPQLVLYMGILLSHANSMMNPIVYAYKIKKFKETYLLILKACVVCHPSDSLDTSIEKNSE
The experiment is described as follows: functional cAMP (HTRF) assay, recombinant CHO cells expressing human A3 receptor, forskolin, agonist IB-MECA. A digest of the protocol: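 Recombinant CHO lines carrying either receptor receive forskolin, compound and the matching agonist, CPA or IB-MECA. After 30 min, HTRF reagents are added and cAMP is quantified. Values are normalized to inhibitor and neutral DMSO controls, then fitted.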

T2 sequence (P29274 whole entry): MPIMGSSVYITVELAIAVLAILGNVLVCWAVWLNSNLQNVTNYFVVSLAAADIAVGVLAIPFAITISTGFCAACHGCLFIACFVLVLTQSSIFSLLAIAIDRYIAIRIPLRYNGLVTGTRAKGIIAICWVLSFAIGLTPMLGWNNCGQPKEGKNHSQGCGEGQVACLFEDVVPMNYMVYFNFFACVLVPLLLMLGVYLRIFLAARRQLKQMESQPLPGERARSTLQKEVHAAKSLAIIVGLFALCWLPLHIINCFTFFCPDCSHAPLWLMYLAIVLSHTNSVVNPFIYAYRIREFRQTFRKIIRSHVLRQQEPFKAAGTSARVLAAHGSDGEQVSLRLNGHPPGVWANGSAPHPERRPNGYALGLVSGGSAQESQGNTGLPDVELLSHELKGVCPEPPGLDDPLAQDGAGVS

In general, IC50 refers to the concentration that gives 50% inhibition. `COc1ccc(C2CCOCC2)c2nc(NC(=O)c3ccnc(N4CCC(C)(O)C4)c3)[nH]c12` (centres unmarked) [compound 122, 2-(3-hydroxy-3-methylpyrrolidin-1-yl)-N-[7-methoxy-4-(oxan-4-yl)-1H-1,3-benzodiazol-2-yl]pyridine-4-carboxamide]: the IC50 at human A1 receptor was > 1000 nM; at human A2A receptor, < 10 nM; at A2B receptors it was > 1000 nM; on human A3 receptor, > 1000 nM.

Turning to `COc1ccc(-c2ccncc2)c2nc(NC(=O)N3CCC4(COC4)C3)[nH]c12` [compound 85, N-[7-methoxy-4-(pyridin-4-yl)-1H-1,3-benzodiazol-2-yl]-2-oxa-6-azaspiro[3.4]octane-6-carboxamide], the IC50 on human A1 receptor is > 1000 nM; at human A2A receptor, < 100 nM; on A2B receptors it was < 1000 nM; at human A3 receptor, > 1000 nM.

Turning to `COc1ccc(-c2cccc(F)c2)c2nc(NC(=O)c3ccc(C(=O)N(C)C)cc3)[nH]c12` [compound 240, N4-[4-(3-fluorophenyl)-7-methoxy-1H-1,3-benzodiazol-2-yl]-N1,N1-dimethylbenzene-1,4-dicarboxamide], the half-maximal inhibitory concentration (IC50) at human A1 receptor is < 1000 nM; on human A2A receptor, < 10 nM; at A2B receptors it was < 10 nM; at human A3 receptor it was < 1000 nM.

On to `COc1ccc(-c2cccc(F)c2)c2[nH]c(NC(=O)c3c[nH]cn3)nc12` [compound 265, N-[7-(3-fluorophenyl)-4-methoxy-1H-1,3-benzodiazol-2-yl]-1H-imidazole-4-carboxamide], for which the IC50 at human A1 receptor was < 1000 nM; at human A2A receptor, < 10 nM; at A2B receptors, < 100 nM; at human A3 receptor, < 1000 nM.

Regarding `COc1ccc(N2CCOCC2)c2nc(NC(=O)c3ccc(Cn4ccnc4)cc3)[nH]c12` [compound 76, 4-[(1H-imidazol-1-yl)methyl]-N-[7-methoxy-4-(morpholin-4-yl)-1H-1,3-benzodiazol-2-yl]benzamide], the IC50 at human A1 receptor was > 1000 nM; at human A2A receptor, < 10 nM; at A2B receptors, < 1000 nM; at human A3 receptor it was > 1000 nM.

With `COc1ccc(C2CCOCC2)c2nc(NC(=O)c3ccc4c(c3)CCO4)[nH]c12` [compound 108, N-[7-methoxy-4-(oxan-4-yl)-1H-1,3-benzodiazol-2-yl]-2,3-dihydro-1-benzofuran-5-carboxamide], the IC50 is > 1000 nM on human A1 receptor, < 10 nM on human A2A receptor, < 1000 nM on A2B receptors and < 1000 nM at human A3 receptor.

On to `COc1ccc(N2CCOCC2)c2nc(NC(=O)c3ccc(O)c(N)c3)[nH]c12` [compound 99, 3-amino-4-hydroxy-N-[7-methoxy-4-(morpholin-4-yl)-1H-1,3-benzodiazol-2-yl]benzamide], for which the IC50 at human A1 receptor is > 1000 nM; on human A2A receptor, < 10 nM; at A2B receptors it was > 1000 nM; on human A3 receptor it was > 1000 nM.

On to `COc1ccc(-c2ccccc2)c2nc(NC(=O)c3c[nH]cn3)[nH]c12` [compound 253, N-(7-methoxy-4-phenyl-1H-1,3-benzodiazol-2-yl)-1H-imidazole-4-carboxamide], for which the IC50 at human A1 receptor is < 1000 nM; on human A2A receptor, < 10 nM; at A2B receptors, < 10 nM; at human A3 receptor, < 1000 nM.

As to `CCCC1(c2ccc(OC)c3[nH]c(NC(=O)c4cnn(C)c4)nc23)CC1` [compound 232, N-[7-methoxy-4-(1-propylcyclopropyl)-1H-1,3-benzodiazol-2-yl]-1-methyl-1H-pyrazole-4-carboxamide], the half-inhibitory concentration (IC50) at human A1 receptor was > 1000 nM; at human A2A receptor it was < 100 nM; at human A3 receptor, < 1000 nM.

Turning to `COc1ccc(-c2cccc3c2CCN3)c2nc(NC(=O)N3CCC(C)(O)CC3)[nH]c12` [compound 292, N-[4-(2,3-dihydro-1H-indol-4-yl)-7-methoxy-1H-1,3-benzodiazol-2-yl]-4-hydroxy-4-methylpiperidine-1-carboxamide], the IC50 is < 10 nM at human A1 receptor, < 100 nM on human A2A receptor and > 1000 nM on human A3 receptor.

As for `COc1ccc(N2CCCCCC2)c2nc(NC(=O)N3CCC(C)(O)CC3)[nH]c12` [compound 216, N-[4-(azepan-1-yl)-7-methoxy-1H-1,3-benzodiazol-2-yl]-4-hydroxy-4-methylpiperidine-1-carboxamide], the IC50 on human A1 receptor was > 1000 nM; at human A2A receptor it was < 100 nM; on human A3 receptor it was > 1000 nM.

Take `COc1ccc(C2CCOCC2)c2nc(NC(=O)C3(C#N)CC3)[nH]c12` [compound 226, 1-cyano-N-[7-methoxy-4-(oxan-4-yl)-1H-1,3-benzodiazol-2-yl]cyclopropane-1-carboxamide]: the results for the IC50 at human A1 receptor, at human A2A receptor and at human A3 receptor were > 1000 nM, < 100 nM and > 1000 nM, respectively.

For the molecule `COc1ccc(C2CCOCC2)c2nc(NC(=O)c3cnc(C)o3)[nH]c12` [compound 234, N-[7-methoxy-4-(oxan-4-yl)-1H-1,3-benzodiazol-2-yl]-2-methyl-1,3-oxazole-5-carboxamide], the IC50 at human A1 receptor was > 1000 nM; at human A2A receptor, < 10 nM; at human A3 receptor it was < 1000 nM.

Regarding `COc1ccc(-c2cnn(-c3ccccn3)c2)c2[nH]c(NC(=O)N3CCC(C)(O)CC3)nc12` [compound 231, 4-hydroxy-N-{4-methoxy-7-[1-(pyridin-2-yl)-1H-pyrazol-4-yl]-1H-1,3-benzodiazol-2-yl}-4-methylpiperidine-1-carboxamide], the figures for the IC50 at human A1 receptor, on human A2A receptor and on human A3 receptor were < 1000 nM, < 100 nM and < 1000 nM, respectively.

In the case of `COCCOCCn1cc(-c2ccc(OC)c3nc(NC(=O)N4CCC(C)(O)CC4)[nH]c23)cn1` [compound 230, 4-hydroxy-N-(4-methoxy-7-{1-[2-(2-methoxyethoxy)ethyl]-1H-pyrazol-4-yl}-1H-1,3-benzodiazol-2-yl)-4-methylpiperidine-1-carboxamide], the IC50 was > 1000 nM on human A1 receptor, < 100 nM at human A2A receptor and > 1000 nM on human A3 receptor.

With `COc1ccc(-c2cnn(C3CN(C(=O)OC(C)(C)C)C3)c2)c2[nH]c(NC(=O)N3CCC(C)(O)CC3)nc12` [compound 245, tert-butyl 3-(4-{2-[(4-hydroxy-4-methylpiperidine-1-carbonyl)amino]-4-methoxy-1H-1,3-benzodiazol-7-yl}-1H-pyrazol-1-yl)azetidine-1-carboxylate], the IC50 is > 1000 nM at human A1 receptor, < 100 nM on human A2A receptor and > 1000 nM at human A3 receptor.

Consider `CCCC(CC)c1ccc(OC)c2[nH]c(NC(=O)c3cnn(C)c3)nc12` (centres unmarked) [compound 233, N-[4-(hexan-3-yl)-7-methoxy-1H-1,3-benzodiazol-2-yl]-1-methyl-1H-pyrazole-4-carboxamide], for which the IC50 on human A1 receptor was > 1000 nM; on human A2A receptor, < 100 nM; on human A3 receptor, < 10 nM.

Turning to `COc1ccc(-c2ccc3c(cnn3C)c2)c2nc(NC(=O)N3CCC(C)(O)CC3)[nH]c12` [compound 273, 4-hydroxy-N-[7-methoxy-4-(1-methyl-1H-indazol-5-yl)-1H-1,3-benzodiazol-2-yl]-4-methylpiperidine-1-carboxamide], the IC50 is > 1000 nM on human A1 receptor, < 100 nM at human A2A receptor and > 1000 nM at human A3 receptor.

Take `COc1ccc(-c2ccnc3[nH]ccc23)c2[nH]c(NC(=O)N3CCC(C)(O)CC3)nc12` [compound 270, 4-hydroxy-N-(7-methoxy-4-{1H-pyrrolo[2,3-b]pyridin-4-yl}-1H-1,3-benzodiazol-2-yl)-4-methylpiperidine-1-carboxamide]: the IC50 on human A1 receptor was > 1000 nM; on human A2A receptor, < 100 nM; at human A3 receptor it was > 1000 nM.

For the molecule `COc1ccc(-c2cnn(C3CCOC3)c2)c2nc(NC(=O)N3CCC(C)(O)CC3)[nH]c12` (centres unmarked) [compound 241, 4-hydroxy-N-{4-methoxy-7-[1-(oxolan-3-yl)-1H-pyrazol-4-yl]-1H-1,3-benzodiazol-2-yl}-4-methylpiperidine-1-carboxamide], the IC50 was > 1000 nM on human A1 receptor, < 100 nM at human A2A receptor and > 1000 nM on human A3 receptor.
